Reference: patent publication US6737423B2, “Substituted heterocyclo-norbornylamino derivatives, processes for their preparation, their use as medicaments or diagnostics, and medicaments comprising them” (Aventis Pharma Deutschland GmbH, priority 2000, dated 2004)
Counter-ions that a name gives are not always drawn.

Tests used:
Rat NHE3 = target: T1, Rat NHE3 (Rattus norvegicus, UniProt P26433); assay: NHE activity measurement (pHi recovery after acid load, transfected LAP1 cells); assay type: cell-based; conditions: stably transfected LAP1 cells, pH recovery recorded for 3 minutes, BCECF
T1 construct: expressed in transfected cells; host or cells: LAP1 (NHE-deficient cell line), stably transfected with pMAMneo plasmid
T1 sequence (P26433 29-831): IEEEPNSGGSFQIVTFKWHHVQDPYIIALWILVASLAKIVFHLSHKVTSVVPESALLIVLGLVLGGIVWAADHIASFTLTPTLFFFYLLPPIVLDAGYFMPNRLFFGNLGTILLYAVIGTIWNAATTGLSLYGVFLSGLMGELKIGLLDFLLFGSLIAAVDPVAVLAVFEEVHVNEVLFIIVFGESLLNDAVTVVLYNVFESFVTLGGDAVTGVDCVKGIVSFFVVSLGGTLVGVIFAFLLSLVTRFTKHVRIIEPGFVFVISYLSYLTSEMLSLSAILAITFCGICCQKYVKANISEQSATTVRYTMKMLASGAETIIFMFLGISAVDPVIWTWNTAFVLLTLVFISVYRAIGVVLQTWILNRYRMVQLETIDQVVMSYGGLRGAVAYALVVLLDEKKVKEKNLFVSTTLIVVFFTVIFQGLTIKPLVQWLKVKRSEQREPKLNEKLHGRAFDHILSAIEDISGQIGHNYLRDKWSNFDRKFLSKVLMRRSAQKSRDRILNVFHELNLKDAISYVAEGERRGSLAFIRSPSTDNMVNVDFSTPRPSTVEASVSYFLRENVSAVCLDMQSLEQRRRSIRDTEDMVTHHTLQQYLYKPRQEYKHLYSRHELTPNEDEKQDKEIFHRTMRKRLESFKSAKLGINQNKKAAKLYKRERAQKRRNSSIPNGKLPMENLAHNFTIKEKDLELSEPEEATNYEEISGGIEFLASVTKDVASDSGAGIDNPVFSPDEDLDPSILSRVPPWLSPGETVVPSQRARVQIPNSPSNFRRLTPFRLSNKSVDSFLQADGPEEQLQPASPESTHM
From the text: In the context of our studies, stably transfected cell lines were produced that in each case expressed one of the following NHE subtypes: Human NHE1 (Sardet et al. Cell 56:271-280 (1989)), rabbit NHE2 (Tse et al.; J. Biol. Chem. 268:11917-11924 (1993)), human NHE3 (Brant et al. Am. J. Physiol. 269 (Cell Physiol. 38) C198-C206 (1995)), or rat NHE3 (Orlowski et al.; J. Biol. Chem. 267:9331-9339 (1992)).
The cDNA clones of the respective NHE subtypes obtained by Prof. Pouyssegur were, after addition of suitable linker sequences, cloned into the expression plasmid pMAMneo (obtainable, for example, via CLONTECH, Heidelberg) such that the recognition sequence for the restriction endonuclease Nhel of the plasmid was approximately 20-100 Basepairs before the start codon of the respective NHE subtype and that the total coding sequence was present in the construct. In the case of the human NHE3 obtained from human kidney mRNA by means of RT-PCR, the RT-PCR primers were selected such that the cDNA band obtained had cleavage sites suitable for pMAMneo at its ends.
Using the “calcium phosphate method” (described in chapter 9.1 of “Current Protocols in Molecular Biology”), the NHE-deficient cell line LAP1 (Franchi et al.; Proc. Natl. Acad. Sci. USA 83:9388-9392 (1986)) was transfected with the plasmids that received the respective coding sequences of the NHE subtypes. […]
In this test, the recovery of the intracellular pH (pHi) after an acidification, which in the case of functional NHE occurs even under bicarbonate-free conditions, was determined. For this, the pHi was determined using the pH-sensitive fluorescent dye BCECF (Calbiochem, where the precursor BCECF-AM is employed). […] The BCECF fluorescence was determined in a “Ratio Fluorescence Spectrometer” (Photon Technology International, South Brunswick, N.J., USA) at excitation wavelengths of 505 and 440 nm and an emission wavelength of 535 nm and converted into the pHi by means of calibration curves. […]

Caco-2 cell line = assay: Caco 2 model (transport through Caco-2 monolayers, absorbed fraction); assay type: in vitro ADME; conditions: apical to basolateral, pH 7.8, 37° C., test concentration 1 mM / 100 μM, from Papp via sigmoidal calibration curve
Experimental: The Caco-2 cell line was acquired from the American Type Culture Collection (ATCC) and maintained in Dulbecco's Modified Eagle medium (high glucose content), supplemented with nonessential amino acids, L-glutamine, penicillin/streptomycin, and 10% strength fetal calf serum. The Caco-2 cell line was then kept in an incubator under a 10% strength CO2 atmosphere at 95% strength relative humidity and 37° C. The cells were grown in cell culture flasks (175 cm^2). For the transport investigations, the Caco-2 cells were inoculated into polycarbonate cell culture inserts (costar Transwells®, pore size: 3 μm, area: 4.71 cm^2) at a cell density of 6.5×10^4 cells/cm^2 and incubated in six-well culture plates with a change of medium after 4 and 8 days and then every second day thereafter. 21 to 25 day-old monolayers were used for the experiments.
In each test series, a 21 day-old monolayer was tested for its properties with ^3H-dextran as a permeability marker. The value of the transfer rate (cumulative) had to be in the range of 2% after 120 min.
After eliminating the growth medium from the apical and the basolateral side, the monolayers were rinsed with the transport buffer (Hank's balanced salt solution, pH 7.8; containing 2.8 g/l glucose).The cells were then equilibrated for 15 min at 37° C. under a 10% strength C02 atmosphere. The HBSS buffer was then removed. The test compounds were dissolved in a mixture of HBSS buffer and DMSO and added to the apical buffer such that a 1% strength (v/v) DMSO solution resulted. The test concentration in the first experiment was 1 mM, and 100 μM in the second. The experiments were carried out at 37° C. and started by the addition of 1.5 ml of test solution to the donor side (apical). Transport buffer without compound was added to the recipient side (basolateral, 2.5 ml). At various points in time, samples were taken from the basolateral side (1 ml) and replaced by fresh buffer solution at 37° C. […]
The compounds were analyzed by means of HPLC.
The apparent permeability coefficient (Papp) was calculated by means of the following equation: [formula]
wherein dc/dt is the flow through the monolayer (μg of compound/ml x s), V is the liquid volume in the collection chamber (ml), A is the surface area size of the monolayer (cm^2) and c0 is the initial concentration (μg of compound/ml) in the donor chamber. The flow through the monolayer was calculated from the cumulative basolateral concentration at the appropriate point in time with the aid of the initially linear data curve (linear up to 60 min). The respective determinations were made in triplicate, such that the calculated Papp value represents the mean of three measurements. […]

NHE3 = NHE3 inhibitor; cited from earlier work

SMILES	IC50 (Rat NHE3)	Absorbed fraction (Caco-2 cell line)	also measured
c1cncc(CN[C@@H]2C[C@@H]3C[C@H]2[C@@H]2CCCC[C@H]32)c1 (as salt: hydrochloride) [Example 8, exo/endo-(decahydro-1,4-methanonaphthalen-2-yl)-pyridin-3-ylmethyl-amine Hydrochloride]	–	–	melting point: 283 to 285 °C
c1cncc(CN[C@@H]2C[C@@H]3C[C@H]2[C@@H]2CCC[C@H]32)c1 (racemic) [Example 1, (rac)-exo/endo-(octahydro-4,7-methanoinden-5-yl)pyridin-3-ylmethylamine Hydrochloride]	340 nM	100%	–
c1cnc(CN[C@@H]2C[C@@H]3C[C@H]2[C@@H]2CCC[C@H]32)cn1 (racemic) [Example 18]	–	100%	–
c1cncc(CN[C@@H]2C[C@@H]3C[C@H]2[C@H]2CCC[C@@H]32)c1 (relative stereo) [Example 6, exo/exo-(octahydro-4,7-methanoinden-5-yl)-pyridin-3-ylmethylamine Hydrochloride]	2100 nM	–	–
c1csc(CN[C@@H]2C[C@@H]3C[C@H]2[C@@H]2CCC[C@H]32)c1 [Example 5, exo/endo-(octahydro-4,7-methanoinden-5-yl)-thiophen-2-ylmethylamine Hydrochloride]	2900 nM	–	–
C/C(=C\c1cccc(/C=C(\C)C(=O)N=C(N)N)c1)C(=O)N=C(N)N.Cl.Cl [S 2120, reference compound]	–	<1%	–
C/C(=C\c1cc(C)ccc1/C=C(\C)C(=O)NC(=N)N)C(=O)N=C(N)N [S 3226, reference compound]	–	<5%	–
CC(C)[C@@H](CC[C@@H](C)[C@H]1CC[C@H]2[C@@H]3[C@H](O)C[C@H]4C[C@@H](NCCCNCCCCN)CC[C@]4(C)[C@H]3CC[C@]12C)OS(=O)(=O)O [squalamine]	–	–	time to reach maximum potency (NHE3): only after approximately one hour
